The results in this text go back to patent US11406631B2, “Hydrazone derivatives for preventing or treating EBV-related cancers” (Universite de Bretagne Occidentale, priority 2018, dated 2022).

Structures are written as SMILES.

Data set [1] concerns GAr-limited antigen presentation. Nature of the data set: Antigen presentation assay (IL-2 ELISA). Type of data set: cell-based. As to conditions: 5 μM and 10 μM, compared to DMSO-treated cells. On the procedure: Stars indicate significant results (the higher the number of stars, the more significant). […]ns[…] stands for not significant.
The aim of this assay was to determine if compounds 2a and 11a were able to interfere (suppress) with the GAr-dependent limitation of EBNA1-derived antigenic peptid presentation. H1299 cells were transfected with 235GAr-OVA or OVA plasmids and murine MHC class I Kb plasmids. T-cell proliferation is determined using ELISA assay for Mouse IL-2 (IL-2 is a potent lymphoid cell growth factor which exerts its biological activity primarily in T cell). There is therefore a correlation between the quantity of IL2 released and the T-cell proliferation.
Quantifications of IL2 release following treatment with compounds 2a or 11a, as compared to DMSO-treated cells are shown in the FIG. 7. […] These compounds thus increase T-cell proliferation.

The subject of data set [2] is GAr-based inhibition of translation. In words: Yeast assay (assays described in Lista et al.). Type of data set: cell-based, Saccharomyces cerevisiae. The source says:
A yeast-based (Saccharomyces cerevisiae) assay that recapitulates all the aspects of the GAr-based inhibition of translation, including the GAr-length dependency, has been developed, that allowed understanding the mechanisms of GAr-mediated mRNA translation—suppression in cis, as well as the cellular factors involved (Lista et al. Biotechnol J 2015, 10, 1670-1681). This assay was successfully used to identify small molecular weight compounds that can stimulate EBNA1 expression both in yeast and mammalian cells and that relieve GAr-based limitation of antigen presentation (Voisset et al. Dis Model Mech 2014, 7, 435-444).
Compounds 1a, 2a, 4a, 5a, 7a, 10a and 11a were also tested in the various assay described in Lista et al. (Nat Commun 2017, 8, 16043).

The test system of the next data set is Mutu-1 cells. In words: Cell viability (MTT assay). The data set is classed as cell-based. Further details: dose or concentration left out as unconfirmed. As to conditions: concentration range where they increase EBNA1 expression; preliminary results. On the procedure: Stars indicate significant results (the higher the number of stars, the more significant).
Toxicity of various concentration of G4 ligands on Mutu-1 cells was assessed using the classical MTT assay. The results obtained with various concentrations of compounds 2a and 11a were compared to the result obtained with cells treated by DMSO (compound vehicle).
For orientation: Tetrazolium assays rely on reduction of a dye to a coloured formazan, in cell work by metabolically active cells.

In data set [3] the test system is EBNA1 expression in EBV-infected cells. In words: Western blot of endogenous EBNA1 in EBV-infected cell lines (B95.8, Mutu-1, Raji). The note with it: GAr-dependent; 2a in B95.8, Mutu-1 and Raji, 11a in Raji. The data set is classed as cell-based. How it is done:
Therefore, compound 2a interferes with the GAr-based inhibition of protein expression. Interference with EBNA1 expression in EBV-infected cells was assessed in different cell lines. The principle of these experiments is the same than the one described in the paragraph just above except that the steady state level of endogenous EBNA1 is determined in these EBV-infected cell lines.
B95.8 cells are derived from cotton-top Tamarin Monkey peripheral blood lymphocyte EBV-positif. Mutu-1 cells are derived from an EBV-positive Burkitt's lymphoma biopsy specimen from a patient. Raji cells are EBV-positive type III latency Burkitt's lymphoma.
Compounds 2a and 11a increase in a GAr-dependent manner EBNA1 expression in EBV-infected cells.

A further data set concerns the target G4-RNA EBNA1. Nature of the data set: HT-G4-FID assay: Thiazole Orange displacement from G4-RNA. The data set is classed as binding, Epstein-Barr virus. As to conditions: for DC50: K+-100 buffer, pH 7.3, triplicate assays; for affinity for the G-quadruplex structure of EBNA1 (in words, FID data): conclusion from Table 1. How it is done: This assay is based on the displacement of a fluorescent indicator (Thiazole Orange, hereinafter TO) from a G4-RNA structure (RNA G-quadruplex of EBNA1) by a putative ligand such as the compounds of the invention (see FIG. 1). This displacement is quantified as % TO displacement. The percentage of TO displacement is calculated from the fluorescence intensity (F) in the presence of a putative ligand, using:
[formula] where F0 is fluorescence intensity of the probe (TO) bound to RNA without added ligand. The percentage of displacement is then plotted as a function of the concentration of added ligand. The RNA affinity of putative ligands is evaluated using the concentration of a ligand required to decrease the fluorescence of the probe by 50% (noted DC50), which is determined graphically from non-linear fitting of the displacement curve. […] 2. Materials and Reagents
Thiazole Orange (TO) and cacodylic acid were purchased from Aldrich and used without further purification. The oligoribonucleotide EBNA1 [5′-r(GGGGCAGGAGCAGGAGGA)-3′] (SEQ ID no 1) purified by reversed-phase HPLC was purchased from Eurogentec.
Stock solutions of the ligands (2 mM in DMSO (dimethylsulfoxyde)) were used for G4-FID assay, unless otherwise stated, and were stored at −20° C. Stock solutions of TO (2 mM in DMSO) were used for G4-FID assay. Fluorescent probe powders and solutions were stored and used, protected from light and used as aliquots to avoid freeze-thaw cycles. HT-G4-FID measurements were performed on a FLUOstar Omega microplate reader (BMG Labtech) with 96-well Non-Binding Surface black with black bottom polystyrene microplates (Corning ref 3650).
For HT-G4-FID assay, the oligonucleotide was dissolved in K^+−100-buffer (10 mM lithium cacodylate, pH 7.3, 100 mM KCl, 1 mM EDTA, 1% DMSO). Oligonucleotide concentrations were determined on the basis of their absorbance at 260 nm. Prior to use, the oligonucleotide was pre-treated by heating at 95° C. for 5 min followed by a slow cooling to 25° C.
Each G4-FID assay is performed in a 96-well microplates. […] The microplate is filled with (a) K^+−100 solution (qs for 200 μL) (b) 10 μL of a solution of pre-folded oligonucleotides (5 μM) and TO (10 μM-2 eq) and (c) an extemporaneously prepared 5 μM ligand solution in K^+−100 buffer (0 to 100 μL along the line of the microplate, i.e., from column […]: 0, 0.125, 0.25, 0.375, 0.5, 0.625, 0.75, 1.0, 1.25, 1.5, 2.0 and 2.5 μM) (see Largy et al., Anal Bioanal Chem 2011, 400, 34193427). After 5 min of orbital shaking at 500 rpm, fluorescence intensity is measured using the following experimental parameters: positioning delay: 0.5 s, 20 flashes per well, emission/excitation filters (nm): 485/520, gain adjusted at 80% of the fluorescence from the most fluorescent well (i.e., a well from column A).
Results are shown in Table 1 below (lower DC50 values indicate higher affinity of compounds to the G4-RNA structure of EBNA1).

`C[n+]1ccc(C=NNC(=O)c2ccc3ccc4ccc(C(=O)NN=Cc5cc[n+](C)c6ccccc56)nc4c3n2)c2ccccc21.[I-].[I-]` [Compound 11a, N′^2,N′^9-Bis[(1-methylquinolinium-4-yl)methylene]-1,10-phenanthroline-2,9-dicarbohydrazide iodide]: in data set [1], the “release of IL-2, H1299 cells expressing 235GAr-OVA” value is reported as “significantly increased (two-fold change)” and the “release of IL-2, OVA-expressing cells” value is “no effect”. Also, the “result in the yeast assay” value in data set [2] is “positive results”. Moreover, the “toxicity on Mutu-1 cells” value with Mutu-1 cells is given as “not significantly toxic”. Also, in data set [3], the “EBNA1 expression in EBV-infected cells” value is listed as “increase”. Besides, at G4-RNA EBNA1, the DC50 was 0.3 ± 0.03 µM and the “affinity for the G-quadruplex structure of EBNA1 (in words, FID data)” value was “particularly high affinity”.

Turning to `C[n+]1ccc(C=NNC(=O)c2cccc(C(=O)NN=Cc3cc[n+](C)c4ccccc34)n2)c2ccccc21.[I-].[I-]` [Compound 2a, N′^2, N′^6-Bis[(1-methylquinolinium-4-yl)methylene]pyridine-2,6-dicarbohydrazide iodide], in data set [1], the “release of IL-2, H1299 cells expressing 235GAr-OVA” value is “significantly increased (two-fold change)” and the “release of IL-2, OVA-expressing cells” value is listed as “no effect”. Moreover, the “result in the yeast assay” value in data set [2] is given as “positive results”. The “toxicity on Mutu-1 cells” value with Mutu-1 cells is “not significantly toxic”. Moreover, the “EBNA1 expression in EBV-infected cells” value in data set [3] is listed as “increase”. Moreover, on G4-RNA EBNA1, the DC50 amounted to 0.26 ± 0.05 µM and the “affinity for the G-quadruplex structure of EBNA1 (in words, FID data)” value is listed as “particularly high affinity”.
